Target: T1, SARM1 (50-724) (Homo sapiens, UniProt Q6SZW1)
T1 construct: Purified SARM1 (50-724) with a final concentration of 2 nM
T1 sequence (Q6SZW1 50-724): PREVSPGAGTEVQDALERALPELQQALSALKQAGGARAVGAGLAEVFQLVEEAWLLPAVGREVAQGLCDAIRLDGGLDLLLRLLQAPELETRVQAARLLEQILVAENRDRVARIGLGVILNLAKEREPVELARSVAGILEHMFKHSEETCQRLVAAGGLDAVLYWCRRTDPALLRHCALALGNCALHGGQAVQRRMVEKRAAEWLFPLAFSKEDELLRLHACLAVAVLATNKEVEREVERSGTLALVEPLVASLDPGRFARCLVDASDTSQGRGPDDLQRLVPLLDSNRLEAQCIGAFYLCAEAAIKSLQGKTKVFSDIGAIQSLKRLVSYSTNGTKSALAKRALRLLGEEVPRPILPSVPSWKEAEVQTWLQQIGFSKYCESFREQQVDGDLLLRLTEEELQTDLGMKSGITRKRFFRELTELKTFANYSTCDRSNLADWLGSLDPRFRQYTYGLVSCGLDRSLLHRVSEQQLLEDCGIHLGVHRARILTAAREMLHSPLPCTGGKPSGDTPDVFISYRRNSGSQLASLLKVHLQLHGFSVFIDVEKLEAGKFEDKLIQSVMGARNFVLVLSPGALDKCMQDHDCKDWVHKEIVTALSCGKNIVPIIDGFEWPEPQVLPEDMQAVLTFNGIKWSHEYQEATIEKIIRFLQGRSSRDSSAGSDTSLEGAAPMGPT
Experiment: SARM1 (50-724) enzymatic assay (NMN-activated NAD+ hydrolysis, LC-MS/MS readout)
Format: biochemical
Details: purified SARM1 (50-724) 2 nM, 200 μM NMN activator, 100 μM NAD+ substrate, 1 h at room temperature, read-out: IC50 (SARM1 inhibitory activity)
How it was run: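 NMN-activated NAD+ hydrolysis: compound pre-incubated 15 min at room temperature with 2 nM SARM1 (50-724) at 1% DMSO in DPBS; 100 μM NAD+ plus 200 μM NMN added and reacted 1 h at RT. Acetonitrile quench, LC-MS/MS readout.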

SMILES	IC50
O=C(c1nc2cc(C(F)(F)F)ccc2[nH]1)N(CCO)c1ccc(F)c(F)c1Cl [Compound 203, N-(2-chloro-3,4-difluorophenyl)-N-(2-hydroxyethyl)-5-(trifluoromethyl)-1H-benzo[d]imidazole-2-carboxamide]	≤ 0.1 µM
CN(C(=O)c1nc2cc(Br)ccc2[nH]1)C1CCCC1 [Compound 104, 5-bromo-N-cyclopentyl-N-methyl-1H-benzo[d]imidazole-2-carboxamide]	0.101 to 0.5 µM
CC(C)(C)c1ccc2[nH]c(C(=O)N(CC3(F)COC3)c3[nH]c(=O)ccc3Cl)nc2c1 [Compound 221, 5-(tert-butyl)-N-(3-chloro-6-oxo-1,6-dihydropyridin-2-yl)-N-((3-fluorooxetan-3-yl)methyl)-1H-benzo[d]imidazole-2-carboxamide]	≤ 0.1 µM
CN(C(=O)c1nc2c([nH]1)CCCC2)C1CCCC1 [Compound 58, N-cyclopentyl-N-methyl-4,5,6,7-tetrahydro-1H-benzo[d]imidazole-2-carboxamide]	≥ 1 µM
O=C(c1nc2cc(C(F)(F)F)ccc2[nH]1)N(CCN1CCCS1(=O)=O)c1cccc(Cl)c1Cl [Compound 199, N-(2,3-dichlorophenyl)-N-(2-(1,1-dioxidoisothiazolidin-2-yl)ethyl)-5-(trifluoromethyl)-1H-benzo[d]imidazole-2-carboxamide]	≤ 0.1 µM
O=C(c1nc2cc(C(F)(F)F)ccc2[nH]1)N(CC1CC(O)C1)c1cccc(Cl)c1Cl (stereo not shown) [Compound 177, N-(2,3-dichlorophenyl)-N-((3-hydroxycyclobutyl)methyl)-5-(trifluoromethyl)-1H-benzo[d]imidazole-2-carboxamide]	≤ 0.1 µM
Cc1ccc2[nH]c(C(=O)N(C)C3CC4CC4C3)nc2c1 (stereo not shown) [Compound 53, N-(bicyclo[3.1.0]hexan-1H-benzo[d]imidazole-2-carboxamide]	≥ 1 µM
Cc1c[nH]c(-c2ccc3[nH]c(C(=O)N(CCO)c4cccc(Cl)c4Cl)nc3c2)n1 [Compound 154]	≥ 1 µM
O=C1CCCN1CCN(C(=O)c1nc2ccc(C(F)(F)F)cc2[nH]1)c1cccc(Cl)c1Cl [Compound 165, N-(2,3-dichlorophenyl)-N-(2-(2-oxopyrrolidin-1-yl)ethyl)-6-(trifluoromethyl)-1H-benzo[d]imidazole-2-carboxamide]	0.501 to 1 µM
Cc1ccc2[nH]c(C(=O)N(C)c3cccc(C#N)c3)c(CO)c2c1 [Compound 8, N-(3-cyanophenyl)-3-(hydroxymethyl)-N,5-dimethyl-1//-indole-2-carboxamide]	≥ 1 µM
COC(=O)CN(C(=O)c1nc2cc(C(F)(F)F)ccc2[nH]1)c1cccc(Cl)c1Cl [Compound 140, Methyl N-(2,3-dichlorophenyl)-N-(5-(trifluoromethyl)-1H-benzo[d]imidazole-2-carbonyl)glycinate]	≤ 0.1 µM
CN(C(=O)c1[nH]c2ccc(C(F)(F)F)cc2c1CO)C1CCCC1 [Compound 28, N-cyclopentyl-3-(hydroxymethyl)-N-methyl-5-(trifluoromethyl)-1H-indole-2-carboxamide]	0.101 to 0.5 µM
Cc1ccc2[nH]c(C(=O)N(C)c3cccc(C(F)(F)F)c3)c(CO)c2c1 [Compound 10, 3-(hydroxymethyl)-N,5-dimethyl-N-(3-(trifluoromethyl)phenyl)-1H-indole-2-carboxamide]	≥ 1 µM
CS(=N)(=O)CCCN(C(=O)c1nc2cc(C(F)(F)F)ccc2[nH]1)c1cccc(F)c1Cl (stereo not shown) [Compound 224, N-(2-chloro-3-fluorophenyl)-N-(3-(S-methylsulfonimidoyl)propyl)-5-(trifluoromethyl)-1H-benzo[d]imidazole-2-carboxamide]	≤ 0.1 µM
CN(C(=O)c1nc2cc(C(F)(F)F)ccc2[nH]1)c1cc(F)cc(Cl)c1Cl [Compound 120, N-(2,3-dichloro-5-fluorophenyl)-N-methyl-5-(trifluoromethyl)-1H-benzo[d]imidazole-2-carboxamido]	≤ 0.1 µM
O=C(c1nc2cc(Cl)cc(Cl)c2[nH]1)N(CC(F)(F)CO)c1cccc(F)c1Cl [Compound 235]	0.101 to 0.5 µM

SMILES	IC50
Cc1ccc2[nH]c(C(=O)N(C)c3c(Cl)cccc3Cl)c(CO)c2c1 [Compound 5, N-(2,6-dichlorophenyl)-3-(hydroxymethyl)-N,5-dimethyl-1H-indole-2-carboxamide]	0.101 to 0.5 µM
CS(=O)(=O)c1ccc2[nH]c(C(=O)N(CCO)c3cccc(Cl)c3Cl)nc2c1 [Compound 108, N-(2,3-dichlorophenyl)-N-(2-hydroxyethyl)-5-(methylsulfonyl)-1H-benzo[d]imidazole-2-carboxamide]	0.101 to 0.5 µM
O=C(c1nc2c(F)c(Cl)ccc2[nH]1)N(CC(F)(F)CO)c1cccc(F)c1Cl [Compound 236]	≤ 0.1 µM
O=C(c1nc2c(Cl)c(-c3ccn[nH]3)ccc2[nH]1)N(CC1COC1)c1cccc(Cl)c1Cl [Compound 143]	≥ 1 µM
Cc1ccc2[nH]c(C(=O)N(C)c3cc(F)cc(F)c3)c(CO)c2c1 [Compound 19, N-(3,5-difluorophenyl)-3-(hydroxymethyl)-N,5-dimethyl-1H-indole-2-carboxamide]	≥ 1 µM
CN(C(=O)c1[nH]c2ccc(F)cc2c1CO)C1CCCC1 [Compound 32, N-cyclopentyl-5-fluoro-3-(hydroxymethyl)-N-methyl-1H-indole-2-carboxamide]	≥ 1 µM
Cc1c(Cl)cccc1N(C)C(=O)c1nc2cc(C(F)(F)F)ccc2[nH]1 [Compound 118, N-(3-chloro-2-methylphenyl)-N-methyl-5-(trifluoromethyl)-1H-benzo[d]imidazole-2-carboxamide]	≤ 0.1 µM
COCCc1c(C(=O)N(C)C2CCCC2)[nH]c2ccc(C)cc12 [Compound 37, N-cyclopenty1-3-(2-methoxyethyl)-N,5-dimethyl-1H-indole-2-carboxamide]	0.101 to 0.5 µM
Cc1ccc2[nH]c(C(=O)N(C)C3CCCC3)c(CN)c2c1 [Compound 68, 3-(aminomethyl)-N-cyclopentyl-N,5-dimethyl-1H-indole-2-carboxamide]	≥ 1 µM
Cc1cc(-c2ccc3[nH]c(C(=O)N(CC4COC4)c4cccc(Cl)c4Cl)nc3c2)[nH]n1 [Compound 122]	0.101 to 0.5 µM
Cc1ccc2[nH]c(C(=O)N(CCO)C3CCCC3)nc2c1 [Compound 49, N-cyclopentyl-N-(2-hydroxyethyl)-5-methyl-1H-benzo[d]imidazole-2-carboxamide]	0.101 to 0.5 µM
O=C(c1nc2cc(C(F)(F)F)ccc2[nH]1)N(CC(F)(F)CO)c1cc(F)c(F)cc1Cl [Compound 220, N-(2-chloro-4,5-difluorophenyl)-N-(2,2-difluoro-3-hydroxypropyl)-5-(trifluoromethyl)-1H-benzo[d]imidazole-2-carboxamide]	0.101 to 0.5 µM
Cc1ccc2[nH]c(C(=O)N(CCO)c3cccc(Cl)c3Cl)nc2c1Br [Compound 160]	≤ 0.1 µM
CN1CCC(N(C(=O)c2nc3cc(C(F)(F)F)ccc3[nH]2)c2cccc(F)c2Cl)C1=O (racemic) [Compound 240, N-(2-chloro-3-fluorophenyl)-N-(1-methyl-2-oxopyrrolidin-3-yl)-5-(trifluoromethyl)-1H-benzo[d]imidazole-2-carboxamide]	≤ 0.1 µM
Cc1ccc2[nH]c(C(=O)N(C)c3cccc(Cl)c3Cl)c(C#N)c2c1 [Compound 69, 3-cyano-N-(2,3-dichlorophenyl)-N,5-dimethyl-1H-indole-2-carboxamide]	≤ 0.1 µM

From US20260265195A1, “SARM1 MODULATORS, PREPARATIONS, AND USES THEREOF” (SIRONAX LTD, priority 2022, published 2026)
